Assay in all cases: NCI-60 cell line screen, 48 h
Assay [1] relates to SN12C.
The subject of assay [2] is MDA-MB-231.
Assay [3] has as its system MDA-MB-435.
Assay [4] has as its system SK-MEL-28.
Assay [5] deals with UACC-257.
The subject of assay [6] is OVCAR-8.
The subject of assay [7] is UACC-62.
Assay [8] has as its system MOLT-4.
Assay [9] concerns MCF7.
In assay [10] the test system is Hs-578T.
The subject of assay [11] is A549.
For assay [12], the system named is NCI-H23.
For assay [13], the system named is SW-620.
The subject of assay [14] is NCI-H226.
Assay [15] deals with CAKI-1.
Assay [16] deals with RXF 393.
Assay [17] concerns SK-MEL-2.
Assay [18] deals with HCT-15.
In assay [19] the test system is MDA-N.
Assay [20] relates to OVCAR-4.

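Five compound concentrations were applied to cells in 96-well plates for 48 hours; endpoints were derived by simple linear interpolation of the resulting dose-response curve. Abbreviation: GI50, concentration required for 50% inhibition of growth.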 Calls of active or inactive are those of the source. Rule as the data show it: active = GI50 up to about 1.1 µM and inactive = higher.

With `CC(=O)Nc1ccc2nc(-c3cccc(Cl)c3)cc(O)c2c1`, the GI50 in assay [1] was 32.2 µM (inactive); in assay [2], 0.863 µM (active); in [3] it was 2.35 µM (inactive); in assay [4], 39.3 µM (inactive); in assay [5] it was > 100 µM (inactive); in assay [6] it was 36.9 µM (inactive). Also, the GI50 was 2.42 µM (inactive) in assay [7]; 5.35 µM (inactive) in [8]; 3.77 µM (inactive) in [9]; 2.59 µM (inactive) in assay [10]; 54.7 µM (inactive) in assay [11]; 35.6 µM (inactive) in assay [12]. In assay [13], the GI50 is 4.41 µM (inactive).

For `O=C(O)c1cccc(SSc2cccc(C(=O)O)c2)c1`, the GI50 in assay [14], in assay [1], in assay [15], in [2], in [3] and in [16] was > 100 µM (inactive) in each case. The GI50 in assay [4] was > 100 µM (inactive); in [17] it was > 100 µM (inactive); in assay [18] it was over 100 µM; in assay [19] it was > 100 µM (inactive); in assay [5] it was > 100 µM (inactive); in [6] it was > 100 µM (inactive). Further, the GI50 in [7], in assay [8], in [20], in [11], in assay [12] and in assay [13] was > 100 µM (inactive) in each case.

In the case of `CCOC(=O)c1nc2cc(C(F)(F)F)ccc2nc1Nc1ccc(C(=O)OC)s1`, the GI50 in assay [14] was 27 µM (inactive); in [15], 31.3 µM (inactive); in assay [2], 23.6 µM (inactive); in assay [3] it was 47.2 µM (inactive); in assay [16] it was 16.8 µM (inactive); in assay [4], 45 µM (inactive). Also, the GI50 in assay [17] was 19.4 µM (inactive); in assay [18], 34.2 µM; in assay [5], 36.5 µM (inactive); in [6], 41.2 µM (inactive); in [7], 23.2 µM (inactive); in [8] it was 27.1 µM (inactive). The GI50 in assay [20] was 31 µM (inactive); in assay [10] it was 29.8 µM (inactive); in assay [11], 48.6 µM (inactive); in assay [12], 30 µM (inactive); in assay [13] it was 49.1 µM (inactive).

`Cc1cc(C)c2c(n1)S(=O)(=O)N(CCCN1CCN(c3cccc(Cl)c3)CC1)C(C(=O)c1ccc(Br)cc1)=C2O`: the GI50 in assay [1] was 11.1 µM (inactive); in assay [15], 6.9 µM (inactive); in assay [2] it was 37.7 µM (inactive); in assay [3] it was 18.2 µM (inactive); in assay [16], 23.8 µM (inactive); in assay [4], 28.2 µM (inactive). For the same compound, the GI50 in [17] was 20.5 µM (inactive); in [18] it was 16.7 µM; in assay [5], 15.3 µM (inactive); in assay [6], 23.8 µM (inactive); in assay [7], 31.6 µM (inactive); in [8], 10.6 µM (inactive). In addition, the GI50 in assay [9] is 25.7 µM (inactive); in assay [20], 11.4 µM (inactive); in [10] it was 29.6 µM (inactive); in assay [11], 22.1 µM (inactive); in assay [12], 33.5 µM (inactive); in assay [13] it was 34.1 µM (inactive).

Take `Cc1csc2nc(-c3cc([N+](=O)[O-])c(Cl)cc3Cl)c(/C=N/N=C(N)N)n12`: the GI50 in [14] was 18.5 µM (inactive); in [1], 16.2 µM (inactive); in [15] it was 15.6 µM (inactive); in [2], 14.8 µM (inactive); in assay [3] it was 17.1 µM (inactive); in [16], 15.9 µM (inactive). Further, the GI50 in assay [4] is 16.4 µM (inactive); in assay [17], 13.4 µM (inactive); in assay [18] it was 21.2 µM; in [5] it was 17.8 µM (inactive); in [6], 19.2 µM (inactive); in [7] it was 14.2 µM (inactive). For the same compound, the GI50 in assay [8] was 0.0986 µM (active); in [9], 15.3 µM (inactive); in assay [20] it was 16 µM (inactive); in [10] it was 15.4 µM (inactive); in assay [11], 19 µM (inactive); in assay [12], 16.4 µM (inactive). In assay [13], the GI50 was 17.2 µM (inactive).

`CCOc1cc(-c2nc3cc(F)ccc3s2)ccc1O`: the GI50 is 17 µM (inactive) in assay [14]; 19.1 µM (inactive) in [1]; 16.9 µM (inactive) in assay [15]; 21.8 µM (inactive) in [2]; 18.2 µM (inactive) in assay [3]; 18.6 µM (inactive) in [16]. Moreover, the GI50 in [4] was 27.6 µM (inactive); in assay [17] it was 17.2 µM (inactive); in assay [18] it was 14.9 µM; in assay [19], 15.8 µM (inactive); in [5], 16.8 µM (inactive); in assay [6], 15.8 µM (inactive). Further, the GI50 in assay [7] was 16.6 µM (inactive); in [9] it was 5.64 µM (inactive); in [20] it was 26.2 µM (inactive); in assay [11], 17.9 µM (inactive); in [12], 18 µM (inactive); in [13], 19.4 µM (inactive).

For the compound `COc1ccc2c(c1)-c1c(c3cc(OC)ccc3n1CCN1CCOCC1)CC2`, the GI50 in assay [14] was 14.7 µM (inactive); in assay [1], 62.2 µM (inactive); in [15], 44.2 µM (inactive); in assay [2], 34.4 µM (inactive); in assay [3] it was 49.1 µM (inactive); in assay [16], 27.1 µM (inactive). The GI50 is 57.1 µM (inactive) in assay [4]; 55.2 µM (inactive) in assay [17]; 14.5 µM in assay [18]; 33.4 µM (inactive) in assay [5]; 28.6 µM (inactive) in [6]; 16.8 µM (inactive) in [7]. Also, the GI50 in [8] is 11.9 µM (inactive); in assay [9], 29 µM (inactive); in assay [20], 54 µM (inactive); in assay [10], 16.6 µM (inactive); in [11], 23.9 µM (inactive); in assay [12] it was 52.1 µM (inactive). Besides, in assay [13], the GI50 was 33.7 µM (inactive).

As for `CC(NC(=O)C(N)CC(=O)O)C(=O)OC12CC3CC(CC(C3)C1)C2` (stereo not given), the GI50 in assay [1], in [15], in [2], in [3], in assay [16] and in assay [4] was > 100 µM (inactive) each time. The GI50 in assay [17] was > 100 µM (inactive); in assay [18] it was over 100 µM; in assay [5], > 100 µM (inactive); in assay [6] it was > 100 µM (inactive); in assay [7], > 100 µM (inactive); in [8] it was > 100 µM (inactive). Besides, the GI50 in assay [9], in assay [20], in [10], in assay [11], in [12] and in [13] was > 100 µM (inactive) in each case.
